Measured values reported in patent publication US20240216344A1, “THIAZOLIDINEDIONE ANALOGS FOR THE TREATMENT OF NAFLD AND METABOLIC DISEASES” (Cirius Therapeutics, Inc., priority 2019, published 2024).

What was measured:
[1] = test system: patients with biopsy-proven NASH with fibrosis and no cirrhosis; test: EMMINENCE Phase 2b trial, liver histology at 12 months; assay type: in vivo, human; settings: for subjects showing NAS histological improvement: PNPLA3 rs738409-G both copies (GG genotype)
Description: embodiments, the histological features are measured by a NAFLD Activity Score (NAS). The scoring system comprised 14 histological features, 4 of which are evaluated semi-quantitatively: steatosis (0-3), lobular inflammation (0-2), hepatocellular ballooning (0-2), and fibrosis (0-4). Another nine features are recorded as present or absent. A liver biopsy of the subject is formalin-fixed and paraffin-embedded. Serial sections of the liver biopsy are hematoxylin and eosin (H&E) stained. The liver biopsy stained sections are examined for NAS scores. For example, hepatocellular ballooning is graded from 0 to 2 (0: normal hepatocytes with cuboidal shape and pink eosinophilic cytoplasm; 1: presence of clusters of hepatocytes with a rounded shape and pale cytoplasm usually reticulated. Lobular inflammation is defined as a focus of two or more inflammatory cells within the lobule. Foci are counted at 20 magnification (0: none; 1: 2 foci per 20; 2: >2 foci per 20).
Study Design: EMMINENCE was a randomized, double-blind evaluation of three oral daily doses of MSDC-0602K (62.5 mg, 125 mg and 250 mg) or placebo given for 12 months to adult patients with biopsy-proven NASH with fibrosis and no cirrhosis. The primary efficacy endpoint was assessed at 12 months. Clinic visits were conducted at baseline, 1, 2, 3, 6, 9, and 12 months, followed 2 weeks later by a safety visit. An interim analysis of safety and efficacy not related to the primary and secondary endpoints was conducted when 6 month data were available for 328 patients (see Example 5, above.) Interim results were provided only as summary statistics to avoid any unmasking of the study team or sponsor.
Participants: Eligible patients were at least 18 years old with NASH (NAS≥4; score ≥1 in each component [steatosis, ballooning, inflammation]) with F1 to F3 fibrosis on liver biopsy taken between 9 months prior to screening and randomization according to a central histopathologist.
If no usable liver biopsy was available within 9 months prior to screening, a percutaneous liver biopsy was performed in patients with AST≥20 U/L and FibroScan CAP score ≥270 db/m and kPa≥8.5. Digitized slides were read by a single expert histopathologist according to NASH Clinical Research Network criteria. Baseline biopsies were read first for study qualification and a second time mixed randomly among 12-month biopsies. Fasting blood samples for routine central laboratory analyses were collected at each visit, and frozen samples collected at selected visits for biomarker assays.
Efficacy endpoints: The primary efficacy endpoint was hepatic histological improvement in NAS defined as ≥2-point NAS decrease with a ≥1-point reduction in either ballooning or lobular inflammation and no increase in fibrosis stage at 12 months. Secondary efficacy endpoints included (1) NASH resolution defined as hepatocellular ballooning score of 0 and lobular inflammation score of 0-1 with no increase in fibrosis stage at 12 months, (2) fibrosis improvement defined as ≥1-stage decrease in fibrosis with no worsening of lobular inflammation or hepatocellular ballooning, (3) change from baseline in NAFLD activity score (NAS) and each one of its components (steatosis, lobular inflammation and ballooning) at 12 months, and (4) change from baseline in fibrosis score at 12 months. Exploratory efficacy endpoints included shifts in the central histopathologist's NASH diagnosis confirmation, and changes from baseline to 12 months in markers of glycemic control and insulin sensitivity, liver function/injury, and apoptosis and liver fibrosis.
Using a modified intent-to-treat approach, treated patients were included for analysis in their randomly-assigned treatment groups. Participation of sites with serious GCP or quality concerns were terminated and their data excluded from the analyses. Post-baseline measures through 14 days after the last study drug dose were included. No errors in treatment assignment occurred. […]

[2] = test system: 3-dimensional bioprinted human liver organoids; test: 3-dimensional bioprinted human liver organoids, fibrosis by collagen staining; assay type: cell-based; settings: added to the tissue medium
[3] = 125 mg and 250 mg combined vs placebo, 12 months
[4] = 125 mg and 250 mg combined, 12 months

COc1cccc(C(=O)COc2ccc(CC3SC(=O)NC3=O)cc2)c1 (stereo not shown) [MSDC-0602K]
confirmed NASH diagnosis at baseline (re-read) not confirmed at 12 months ([1]; 62.5 mg): 32.1%
Fibrosis improvement, adjusted OR ([1]; 62.5 mg vs placebo, 12 months): 1.19
Fibrosis improvement, adjusted risk difference ([1]; 62.5 mg vs placebo, 12 months): 0.028
NAS improvement, adjusted OR ([1]; 62.5 mg vs placebo, 12 months): 0.89
NAS improvement, adjusted risk difference ([1]; 62.5 mg vs placebo, 12 months): −0.020
NASH resolution, adjusted OR ([1]; 62.5 mg vs placebo, 12 months): 1.09
NASH resolution, adjusted risk difference ([1]; 62.5 mg vs placebo, 12 months): 0.013
Fibrosis improvement, % of patients ([1]; 62.5 mg, 12 months): (23.8) %
Fibrosis improvement, n/N ([1]; 62.5 mg, 12 months): 20/84
NAS improvement (primary endpoint), n/N ([1]; 62.5 mg, 12 months): 25/84
NASH resolution, % of patients ([1]; 62.5 mg, 12 months): (20.2) %
NASH resolution, n/N ([1]; 62.5 mg, 12 months): 17/84
adjusted mean difference in NAS change to 12 months vs placebo ([1]; 125 mg): −0.6 points
adjusted mean difference in steatosis change to 12 months vs placebo ([1]; 125 mg): −0.2 points
confirmed NASH diagnosis at baseline (re-read) not confirmed at 12 months ([1]; 125 mg): 26.5%
Fibrosis improvement, adjusted OR [1, 3]: 1.48
Fibrosis improvement, adjusted risk difference [1, 3]: 0.073
NAS improvement, adjusted OR [1, 3]: 1.43
NAS improvement, adjusted risk difference [1, 3]: 0.075
NASH resolution, adjusted OR [1, 3]: 1.66
NASH resolution, adjusted risk difference [1, 3]: 0.093
Fibrosis improvement, % of patients [1, 4]: (28.6) %
Fibrosis improvement, n/N [1, 4]: 48/168
NAS improvement (primary endpoint), % of patients [1, 4]: (36.3) %
NAS improvement (primary endpoint), n/N [1, 4]: 61/168
NASH resolution, % of patients [1, 4]: (29.8) %
NASH resolution, n/N [1, 4]: 50/168
Fibrosis improvement, adjusted OR ([1]; 125 mg vs placebo, 12 months): 1.45
Fibrosis improvement, adjusted risk difference ([1]; 125 mg vs placebo, 12 months): 0.067
NAS improvement, adjusted OR ([1]; 125 mg vs placebo, 12 months): 1.22
NAS improvement, adjusted risk difference ([1]; 125 mg vs placebo, 12 months): 0.044
NASH resolution, adjusted OR ([1]; 125 mg vs placebo, 12 months): 1.50
NASH resolution, adjusted risk difference ([1]; 125 mg vs placebo, 12 months): 0.075
Fibrosis improvement, % of patients ([1]; 125 mg, 12 months): (28.0) %
Fibrosis improvement, n/N ([1]; 125 mg, 12 months): 23/82
NAS improvement (primary endpoint), n/N ([1]; 125 mg, 12 months): 27/82
NASH resolution, % of patients ([1]; 125 mg, 12 months): (28.0) %
NASH resolution, n/N ([1]; 125 mg, 12 months): 23/82
adjusted mean difference in NAS change to 12 months vs placebo ([1]; 250 mg): −0.5 points
adjusted mean difference in steatosis change to 12 months vs placebo ([1]; 250 mg): −0.3 points
confirmed NASH diagnosis at baseline (re-read) not confirmed at 12 months ([1]; 250 mg): 30.2%
Fibrosis improvement, adjusted OR ([1]; 250 mg vs placebo, 12 months): 1.51
Fibrosis improvement, adjusted risk difference ([1]; 250 mg vs placebo, 12 months): 0.077
NAS improvement, adjusted OR ([1]; 250 mg vs placebo, 12 months): 1.64
NAS improvement, adjusted risk difference ([1]; 250 mg vs placebo, 12 months): 0.104
NASH resolution, adjusted OR ([1]; 250 mg vs placebo, 12 months): 1.82
NASH resolution, adjusted risk difference ([1]; 250 mg vs placebo, 12 months): 0.108
Fibrosis improvement, % of patients ([1]; 250 mg, 12 months): (29.1) %
Fibrosis improvement, n/N ([1]; 250 mg, 12 months): 25/86
NAS improvement (primary endpoint), n/N ([1]; 250 mg, 12 months): 34/86
NASH resolution, % of patients ([1]; 250 mg, 12 months): (31.4) %
NASH resolution, n/N ([1]; 250 mg, 12 months): 27/86
subjects showing NAS histological improvement ([1]; 62.5 mg): about 17.9%
subjects showing NAS histological improvement ([1]; 250 mg): about 34.5%
effects of the nutrients (stellate cell activation, fibrosis by collagen staining) [2]: both prevented and reversed
